Laboratory results reported in patent US6642217B2, “Triterpenes having human antifungal and antiyeast activity” (Naturtek, LLC, priority 2000, dated 2003).
Each block holds one compound with its values, some of them ahead of it.

Assays:
Trichophyton rubrum [1] = test: Summary of anti-fungal assays (direct addition, agar dilution, liquid culture); type: cell-based; settings: stated in words (Tables 1a/1b, text to Table 5)
Description: (§1) This example summarizes the results of various other assays of the anti-fungal activity of betulin derivatives. Table 5 summarizes results using different assay methods—direct addition, agar dilution, and direct addition to liquid culture, as disclosed in the previous three Examples. In some cases, only one type of assay was done with a compound. In other cases, the compound was tested by multiple assays.

[2] = system: Trichophyton mentagrophytes; test: as above; type: cell-based; settings: stated in words (Tables 1a/1b, text to Table 5)
Description: as §1

Epidermophyton floccosum [3] = test: as above; type: cell-based; settings: stated in words (Tables 1a/1b, text to Table 5)
Description: as §1

Microsporum audouinii = test: as above; type: cell-based; settings: stated in words (Tables 1a/1b, text to Table 5)
Description: as §1

Trichophyton tonsuran = test: Agar dilution method, growth on Sabouraud dextrose agar slants; type: cell-based, Trichophyton tonsurans; set-up: key: +++: Maximum Fungal Growth; ++: Moderate Fungal Growth; +: Minimum Fungal Growth; +/−: Very little Fungal Growth; −: No Fungal Growth; settings: 12th day after inoculation
Description: (§2) Agar dilution method. Sabouraud Dextrose Agar (Difco Laboratories, Michigan) was prepared according to the manufacturer's instructions. Five ml was dispensed in a 100×25 mm tube and autoclaved. To each tube containing 5.0 ml of liquid agar at 45° C., 0.5, 0.25, 0.12, or 0.063 ml of a DMSO solution of the compound was added to give the final indicated concentrations in Table 2. The agar was then solidified in slants. Fungal cultures were inoculated. The slants were incubated at 25-28° C. for 10-12 days, and the growth of the fungus was recorded every second day.

Trichophyton rubrum [4] = test: Direct addition method, solid compound in Sabouraud dextrose agar; type: cell-based; set-up: key: +++: Maximum Fungal Growth; ++: Moderate Fungal Growth; +: Minimum Fungal Growth; +/−: Very little Fungal Growth; −: No Fungal Growth; settings: 4 mg/mL of agar; 12th day after inoculation
Description: (§3) Direct addition method. Sabouraud dextrose agar was prepared according to the manufacturer's instructions and 5.0 ml was dispensed in each 100×25 mm tube. The tubes were autoclaved. To each tube containing 5.0 ml of liquid agar at 45° C., 20 mg of solid test compound was added, to give a final concentration of 4 mg/ml. The agar was solidified in slants. The fungal cultures were then innoculated. The slants were incubated at 25-28 ° C. for 10-12 days, and the growth of the fungus was recorded every second day. The results in Table 2 indicate growth at the 12th day of inoculation.

Microsporum canis [5] = test: as above; type: cell-based; set-up: key: +++: Maximum Fungal Growth; ++: Moderate Fungal Growth; +: Minimum Fungal Growth; +/−: Very little Fungal Growth; −: No Fungal Growth; settings: 4 mg/mL of agar; 12th day after inoculation
Description: as §3

Epidermophyton floccosum [6] = test: as above; type: cell-based; set-up: key: +++: Maximum Fungal Growth; ++: Moderate Fungal Growth; +: Minimum Fungal Growth; +/−: Very little Fungal Growth; −: No Fungal Growth; settings: 4 mg/mL of agar; 12th day after inoculation
Description: as §3

Pityrosporum ovale [7] = test: as above; type: cell-based; set-up: key: +++: Maximum Fungal Growth; ++: Moderate Fungal Growth; +: Minimum Fungal Growth; +/−: Very little Fungal Growth; −: No Fungal Growth; settings: 4 mg/mL of agar; 12th day after inoculation
Description: as §3

Microsporum canis [8] = test: as above; type: cell-based; settings: against Microsporum canis
Description: as §3

Epidermophyton floccosum [9] = test: Agar dilution method, growth on Sabouraud dextrose agar slants; type: cell-based; set-up: key to Fungal growth: +++: Maximum Fungal Growth; ++: Moderate Fungal Growth; +: Minimum Fungal Growth; +/−: Very little Fungal Growth; −: No Fungal Growth; settings: 12th day after inoculation
Description: as §2

Microsporum audouinni [10] = test: Direct addition method, solid compound in Sabouraud dextrose agar; type: cell-based, Microsporum audouinii; set-up: key to Fungal growth: +++: Maximum Fungal Growth; ++: Moderate Fungal Growth; +: Minimum Fungal Growth; +/−: Very little Fungal Growth; −: No Fungal Growth; settings: 4 mg/mL of agar; 12th day after inoculation
Description: as §3

Microsporum audouinni [11] = test: Agar dilution method, growth on Sabouraud dextrose agar slants; type: cell-based, Microsporum audouinii; set-up: key: +++: Maximum Fungal Growth; ++: Moderate Fungal Growth; +: Minimum Fungal Growth; +/−: Very little Fungal Growth; −: No Fungal Growth; settings: 12th day after inoculation
Description: as §2

Trichophyton rubrum [12] = test: as above; type: cell-based; set-up: key: +++: Maximum Fungal Growth; ++: Moderate Fungal Growth; +: Minimum Fungal Growth; +/−: Very little Fungal Growth; −: No Fungal Growth; settings: 12th day after inoculation
Description: as §2

Microsporum canis [13] = test: as above; type: cell-based; set-up: key: +++: Maximum Fungal Growth; ++: Moderate Fungal Growth; +: Minimum Fungal Growth; +/−: Very little Fungal Growth; −: No Fungal Growth; settings: 12th day after inoculation
Description: as §2

Microsporum gypseum = test: as above; type: cell-based; set-up: key: +++: Maximum Fungal Growth; ++: Moderate Fungal Growth; +: Minimum Fungal Growth; +/−: Very little Fungal Growth; −: No Fungal Growth; settings: 12th day after inoculation
Description: as §2

Pityrosporum ovale [14] = test: as above; type: cell-based; set-up: key: +++: Maximum Fungal Growth; ++: Moderate Fungal Growth; +: Minimum Fungal Growth; +/−: Very little Fungal Growth; −: No Fungal Growth; settings: 12th day after inoculation
Description: as §2

[15] = system: Trichophyton mentagrophyte; test: as above; type: cell-based, Trichophyton mentagrophytes; set-up: key to Fungal growth: +++: Maximum Fungal Growth; ++: Moderate Fungal Growth; +: Minimum Fungal Growth; +/−: Very little Fungal Growth; −: No Fungal Growth; settings: 12th day after inoculation
Description: as §2

Pityrosporum ovale [16] = test: Direct addition into the Pityrosporum agar; type: cell-based; set-up: key to Pityrosporum ovale growth: +++: Maximum Growth; ++: Moderate Growth; +: Minimum Growth; +/−: Very Little Growth; −: No Growth; settings: for Pityrosporum ovale growth: 4 mg/ml in the agar, 18 hours after inoculation
Description: as §3, with “The slants were incubated at 25-28 ° C. for 10-12 days, and the growth of the fungus was recorded every second day. The results in Table 2 indicate growth at the 12th day of inoculation.” left out

Trichophyton tonsurans = test: Summary of anti-fungal assays (direct addition, agar dilution, liquid culture); type: cell-based; settings: stated in words (Tables 1a/1b, text to Table 5)
Description: as §1

P. ovale = test: as above; type: cell-based, Pityrosporum ovale; settings: stated in words (Tables 1a/1b, text to Table 5)
Description: as §1

melting point: 312.5 to 315.4 °C (dec.)
Compound: CC(=O)OC1CC[C@@]2(C)C(CC[C@]3(C)C2CCC2C4C5OC(=O)C4(CCC5(C)C)CC[C@@]23C)C1(C)C (stereo partly drawn) [Allobetulinlactone-3-acetate, oleanan-28,19-β-lactone-3-acetate]

Compound: C=C(C)C1CCC2(COC(=O)CC(C)(C)CC(=O)O)CCC3(C)C(CCC4C5(C)CCC(OC(=O)CC(C)(C)CC(=O)O)C(C)(C)C5CCC43C)C12 (stereo not drawn) [Betulin-3,28-di(3′,3′-dimethyl)glutarate]
Active against Trichophyton rubrum (Trichophyton rubrum [1]): Trichophyton rubrum, | Active against Trichophyton mentagrophytes [2]: Trichophyton mentagrophytes, | Active against Epidermophyton floccosum (Epidermophyton floccosum [3]): against Epidermophyton floccosum | Active against Microsporum audouinii (Microsporum audouinii): Microsporum audouinii,

Compound: C=C(C)C1CCC2(COC(=O)CCC(=O)O)CC[C@@]3(C)C(CCC4[C@@]5(C)CCC(OC(=O)CCC(=O)O)C(C)(C)C5CC[C@]43C)C12 (stereo partly drawn) [Betulin-3,28-disuccinate]
Fungal growth (Trichophyton tonsuran; 125 μg/ml): ++ | Fungal growth (Trichophyton tonsuran; 250 μg/ml): + | Fungal growth (Trichophyton tonsuran; 500 μg/ml): + | Fungal growth (Trichophyton tonsuran; 1000 μg/ml): − | Active against Microsporum audouinii (Microsporum audouinii; listed as Betulin-3.28-di-succinate): Microsporum audouinii, | Fungal growth (Trichophyton rubrum [4]): + | Fungal growth (Microsporum canis [5]): − | Fungal growth (Epidermophyton floccosum [6]): − | Fungal growth (Pityrosporum ovale [7]): − | best anti-fungal or anti-yeast activity by the direct addition method (Microsporum canis [8]): against Microsporum canis | Fungal growth (Epidermophyton floccosum [9]; 125 μg/ml): ++ | Fungal growth (Epidermophyton floccosum [9]; 250 μg/ml): + | Fungal growth (Epidermophyton floccosum [9]; 500 μg/ml): + | Fungal growth (Epidermophyton floccosum [9]; 1000 μg/ml): − | Fungal growth (Microsporum audouinni [10]): + | Fungal growth (Microsporum audouinni [11]; 125 μg/ml): + | Fungal growth (Microsporum audouinni [11]; 250 μg/ml): − | Fungal growth (Microsporum audouinni [11]; 500 μg/ml): − | Fungal growth (Microsporum audouinni [11]; 1000 μg/ml): − | Fungal growth (Trichophyton rubrum [12]; 125 μg/ml): ++ | Fungal growth (Trichophyton rubrum [12]; 250 μg/ml): + | Fungal growth (Trichophyton rubrum [12]; 500 μg/ml): + | Fungal growth (Trichophyton rubrum [12]; 1000 μg/ml): − | Fungal growth (Microsporum canis [13]; 125 μg/ml): ++ | Fungal growth (Microsporum canis [13]; 250 μg/ml): + | Fungal growth (Microsporum canis [13]; 500 μg/ml): + | Fungal growth (Microsporum canis [13]; 1000 μg/ml): − | Fungal growth (Microsporum gypseum; 125 μg/ml): ++ | Fungal growth (Microsporum gypseum; 250 μg/ml): + | Fungal growth (Microsporum gypseum; 500 μg/ml): + | Fungal growth (Microsporum gypseum; 1000 μg/ml): − | Fungal growth (Pityrosporum ovale [14]; 125 μg/ml): +++ | Fungal growth (Pityrosporum ovale [14]; 250 μg/ml): +++ | Fungal growth (Pityrosporum ovale [14]; 500 μg/ml): +++ | Fungal growth (Pityrosporum ovale [14]; 1000 μg/ml): + | Fungal growth ([15]; 125 μg/ml): ++ | Fungal growth ([15]; 250 μg/ml): + | Fungal growth ([15]; 500 μg/ml): + | Fungal growth ([15]; 1000 μg/ml): − | Pityrosporum ovale growth (Pityrosporum ovale [16]): +

Compound: C=C(C)C1CCC2(COC(=O)CCCC(=O)O)CCC3(C)C(CCC4C5(C)CCC(O)C(C)(C)C5CCC43C)C12 (stereo not drawn) [Betulin-28-glutarate]
Active against Trichophyton rubrum (Trichophyton rubrum [1]): Trichophyton rubrum, | Active against Trichophyton tonsurans (Trichophyton tonsurans): Trichophyton tonsurans, | Active against Trichophyton mentagrophytes [2]: Trichophyton mentagrophytes, | Active against Epidermophyton floccosum (Epidermophyton floccosum [3]; listed as betulin-28-glutarate): against Epidermophyton floccosum | Fungal growth (Trichophyton rubrum [4]): + | Fungal growth (Microsporum canis [5]): + | Fungal growth (Epidermophyton floccosum [6]): − | Fungal growth (Pityrosporum ovale [7]): − | Active against Pityrosporum ovale (P. ovale): Pityrosporum ovale, | Fungal growth (Microsporum audouinni [10]): + | Growth inhibition of Pityrosporum ovale by the direct addition method (Pityrosporum ovale [16]; 4 mg/ml): inhibited the growth | Pityrosporum ovale growth (Pityrosporum ovale [16]): +/−
